Organism: Rattus norvegicus
Assay: The effective concentration against rat pituitary cell GH release assay
Format: functional
Details: Pituitary gland cell

Row | SMILES | IC50
1 | NCCCCCCNC(=O)Cn1c(CCc2ccccc2)nc2ccc(-c3ccccc3)cc2c1=O | 630 nM

Target: Growth hormone secretagogue receptor type 1 (Homo sapiens, UniProt Q92847)
Assay: Binding affinity for human growth hormone GH secretagogue (hGHsr) receptor
Details: not given

Growth hormone secretagogue receptor type 1, sequence (Q92847 whole entry): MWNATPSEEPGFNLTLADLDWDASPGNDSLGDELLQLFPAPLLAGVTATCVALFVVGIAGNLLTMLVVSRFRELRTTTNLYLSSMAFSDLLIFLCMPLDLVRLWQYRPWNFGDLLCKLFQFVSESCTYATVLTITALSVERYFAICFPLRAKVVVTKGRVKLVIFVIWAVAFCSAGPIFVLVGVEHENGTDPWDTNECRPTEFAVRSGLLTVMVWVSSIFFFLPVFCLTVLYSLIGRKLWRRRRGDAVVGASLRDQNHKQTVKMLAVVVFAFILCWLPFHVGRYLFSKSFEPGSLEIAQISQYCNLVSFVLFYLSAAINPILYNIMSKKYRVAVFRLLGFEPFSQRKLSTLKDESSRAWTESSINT

Row | SMILES | IC50
2 | NCCCCCCNC(=O)Cn1c(CCc2ccccc2)nc2ccc(Br)cc2c1=O | 67 nM
3 | NCCCCCCNC(=O)Cn1c(-c2ccc3ccccc3c2)nc2ccc(-c3ccccc3)cc2c1=O | 200 nM
4 | NCCCCCCNC(=O)Cn1c(-c2ccc3ccccc3c2)nc2ccc(Br)cc2c1=O | 960 nM
5 | NCCCCCCNC(=O)Cn1c(CCc2ccccc2)nc2ccc(-c3ccccc3)cc2c1=O | 16 nM
6 | CN1N=C2CCN(C(=O)[C@@H](COCc3ccccc3)NC(=O)C(C)(C)N)C[C@@]2(Cc2ccccc2)C1=O [CAPROMORELIN] | 3000 nM
7 | NCCCCCNC(=O)Cn1c(CCc2ccccc2)nc2ccc(Br)cc2c1=O | 340 nM
8 | COC(=O)C(CCCCN)NC(=O)Cn1c(-c2ccc3ccccc3c2)nc2ccc(Cl)cc2c1=O (stereo unspecified) | 3500 nM
9 | NCCCCCNC(=O)Cn1c(-c2ccc3ccccc3c2)nc2ccc(Br)cc2c1=O | 1400 nM
10 | NCCCCCNC(=O)Cn1c(-c2ccc3ccccc3c2)nc2ccc(-c3ccccc3)cc2c1=O | 340 nM
11 | NCCCCCNC(=O)Cn1c(CCc2ccccc2)nc2ccc(-c3ccccc3)cc2c1=O | 48 nM

— ChEMBL document CHEMBL1132855, “Modeling directed design and biological evaluation of quinazolinones as non-peptidic growth hormone secretagogues” (Bioorg Med Chem Lett, 2000)
